From US4985547A, “External skin care preparation” (Kao Corporation, priority 1987, dated 1991)

Key:
skin roughness = assay: Score of skin roughness, visual ranking after two-week coating on cheeks; type: in vivo, women; settings: compound 1.0 wt. %, average, 0 = none, 4 = severe
Text: (§1) Compounds Ia1 -Ia18 prepared respectively in Referential Examples 1, 2 and 3 and following the procedures of these referential examples, compounds Ib1 -Ib5 prepared respectively in Referential Example 4 and following the procedure of the referential example, compounds Id1 -Id5 prepared respectively in Referential Example 5 and following the procedure of the referential example, compounds Ie1 -Ie4 prepared respectively in Referential Examples 6-9, and conventional compounds Ic1 -Ic13, Ie5 -Ie14 and II1 -II12 were used separately. Mixtures (Invention Products 1), each of which had been formulated by mixing vaseline and the compound (I or II) at a weight ratio of 3:1, and vaseline (Comparative Product 1) were evaluated in skin conductance and skin roughness by the following methods.
(§2) Chosen as volunteers in winter were 10 women of 20-50 years of old who had skin roughness on their both cheeks. Different external skin care preparations were coated separately on the left and right cheeks of each volunteer for two weeks. On the following day of the completion of the two-week coating test, tests were conducted with respect to the following properties.
Skin roughness was observed visually and ranked in accordance with the following standard. Each score was indicated by an average value.
Score Ranking of skin roughness
0 No skin roughness was observed.
1 Slight skin roughness was observed.
2 Skin roughness was observed.
3 Rather severe skin roughness was observed.
4 Severe skin roughness was observed.
Using separately the compounds used in Example 1, external skin care preparations (emulsified cosmetic preparations) of their corresponding compositions shown below in Table 2 were formulated. Their effects for the improvement of skin roughness were evaluated in the same manner as in Example 1.

horny layer = assay: Skin conductance (water content of horny layer) after two-week coating on cheeks; type: in vivo, women; set-up: key: conductance meter reading; ≤5 = severe roughness, ≥20 = no roughness; settings: Invention Product 1: vaseline and compound 3:1 by weight; two weeks; 20° C., 40% humidity; 5 and smaller = severe roughness, 20 or greater = no substantial roughness
Text: as §1, §2
After washing the face with warm water of 37° C., each volunteer was allowed to rest for 20 minutes in a room which was air-conditioned at 20° C. and 40% humidity. The water content of their horny layer was measured by a skin conductance meter (manufactured by IBS Company). A smaller conductance value indicates greater skin roughness. Conductance values of 5 and smaller indicate severe skin roughness. On the contrary, no substantial skin roughness is observed where this value is 20 or greater.

[1] = Invention product 2: emulsified cosmetic, glyceryl ether 2.0 wt. %
[2] = Invention product 3: emulsified cosmetic, arginine monocetylphosphate 2.0 wt. %
[3] = Invention product 4: emulsified cosmetic, polyoxyethylene (20) sorbitan stearate 1.0 and sorbitan monostearate 1.0 wt. %

| SMILES | Score of skin roughness (skin roughness; [1]) | Score of skin roughness (skin roughness; [2]) | Score of skin roughness (skin roughness; [3]) | Skin conductance (horny layer) |
| --- | --- | --- | --- | --- |
| CCCCCCCCCCCCCCCCOCC(O)CN(CCOP(=O)(O)OCCNC)C(=O)CCCCCCCCCCCCCCC (centres unmarked) [Compound Ie6] | 0.8 | 0.9 | 1.4 | 16 |
| CCCCCCCCCCCCCCCCOCC(O)CN(CC(O)CO)C(=O)CCCCCCCCCCCCCCC (centres unmarked) [Compound Ia10, N-(3-hexadecyloxy-2-hydroxypropyl)-N-2,3-dihydroxypropylhexadecanamide] | 0.1 | 0.3 | 0.6 | 22 |
| CCCCCCCCCCOCC(O)CN(CCOCCO)C(=O)CCCCCCCCC (centres unmarked) [Compound Ib2] | 0.8 | 1.0 | 1.2 | 10 |
| CCCCCCCCCCCCCCCCCC(=O)N(CCCO)CC(O)COCCCCCCCCCC (centres unmarked) [Compound Ia4] | 0.5 | 0.7 | 1.1 | 13 |
| CCCCCCCCCCCCCCCCOCC(O)CN(CCOC1O[C@H](CO)[C@@H](O)[C@H](O)[C@H]1O)C(=O)CCCCCCCCCCCCCCC (some centres unmarked) [Compound Ie1, N-(3-hexadecyloxy-2-hydroxypropyl)-N-(2-O-glucopyranosyl)ethylhexadecanamide] | 0.4 | 0.6 | 0.9 | 25 |
| CCCCCCCCCCCCCCCCOCC(CN(CCO)C(=O)CCCCCCCCCCCCCCC)OP(=O)([O-])OCC[N+](C)(C)C (centres unmarked) [Compound Ie13] | 0.9 | 1.1 | 1.5 | 11 |
| CCCCCCCCCCCCCCCCOCC(O)CN(CC(=O)O)CC(O)COCCCCCCCCCCCCCCCC (centres unmarked) [Compound II9] | 0.1 | 0.3 | 0.9 | 17 |
| CCCCCCCCCCCCCCCCCCOCC(O)CN(CCOCCO)C(=O)CCCCCCCCC (centres unmarked) [Compound Ib3] | 0.6 | 0.9 | 1.1 | 14 |
| CCCCCCCCCCCCCCCCOCC(O)CN(C(=O)CCCCCCCCCCCCCCC)C(Cc1ccccc1)C(=O)O (centres unmarked) [Compound Ic6] | 0.9 | 1.2 | 1.5 | 12 |
| CCCCCCCCCCCCCCCCCCOCC(O)CN(C(=O)CCCCCCCCCCCCCCCCC)C(C)CO (centres unmarked) [Compound Ia16] | 0.4 | 0.6 | 0.9 | 15 |
| CCCCCCCCCCCCCCCCCCOCC(O)CN(CCCCCCO)C(=O)CCCCCCCCCCCCCCCCC (centres unmarked) [Compound Ia9] | 0.2 | 0.4 | 0.9 | 20 |
| CCCCCCCCCCCCCCOCC(O)CN(C(=O)CCCCCCCCC)C(CO)(CO)CO (centres unmarked) [Compound Ia17] | 0.2 | 0.4 | 0.7 | 20 |
| CCCCCCCC/C=C\CCCCCCCC(=O)N(CCO)CC(O)CCCCCCCCCCCCCCCC (centres unmarked) [Compound Id5] | 0.1 | 0.3 | 0.6 | 25 |
| CCCCCCCCCCCCCCCCCCOCC(O)CN(CC(O)COCCCCCCCCCCCCCCCCCC)C(C)=O (centres unmarked) [Compound II12] | 0.2 | 0.4 | 0.8 | 20 |
| CCCCCCCCCCCCCCCCOCC(O)CN(CCOP(=O)([O-])OCC[N+](C)(C)C)C(=O)CCCCCCCCCCCCCCC (centres unmarked) [Compound Ie7] | 0.5 | 0.7 | 1.0 | – |
